{"source": "patent US11253517B2", "about": "“Small molecule regulators of steroid receptor coactivators and methods of use thereof” (BAYLOR COLLEGE OF MEDICINE, priority 2016, dated 2022)", "type_in_all_cases": "biochemical", "key": {"[1]": {"system": "panel of 24 kinases", "test": "Kinase-Glo Luminescent Kinase Assay, panel of 24 kinases", "settings": "1000 nM, 50 nM and 5 nM, versus DMSO vehicle control", "protocol": "(§1) SI-12 was also tested for its ability to disrupt kinase activity. The effects of the compound were tested on a panel of 24 kinases using a Kinase-Glo Luminescent Kinase Assay system (Promega; Madison, Wis.). SI-12 was tested, at concentrations of 1000 nM, 50 nM, and 5 nM, for its ability to interfere with recombinant kinases in the assay system. The amount of ATP to ADP conversion in the presence of SI-12 was compared to a DMSO vehicle control. The values shown in Table 3 represent the percentage of kinase activity compared to a DMSO vehicle control.\n(§2) In Table 3, “−” represents less than 20% inhibition; “+” represents from 20% to 40% inhibition; “++” represents from 40% to 60% inhibition; and “+++” represents greater than 60% inhibition."}, "[2]": {"target": "T1, AKT1 (Homo sapiens, UniProt P31749)", "T1 construct": "purchased Promega", "T1 sequence (P31749 whole entry)": "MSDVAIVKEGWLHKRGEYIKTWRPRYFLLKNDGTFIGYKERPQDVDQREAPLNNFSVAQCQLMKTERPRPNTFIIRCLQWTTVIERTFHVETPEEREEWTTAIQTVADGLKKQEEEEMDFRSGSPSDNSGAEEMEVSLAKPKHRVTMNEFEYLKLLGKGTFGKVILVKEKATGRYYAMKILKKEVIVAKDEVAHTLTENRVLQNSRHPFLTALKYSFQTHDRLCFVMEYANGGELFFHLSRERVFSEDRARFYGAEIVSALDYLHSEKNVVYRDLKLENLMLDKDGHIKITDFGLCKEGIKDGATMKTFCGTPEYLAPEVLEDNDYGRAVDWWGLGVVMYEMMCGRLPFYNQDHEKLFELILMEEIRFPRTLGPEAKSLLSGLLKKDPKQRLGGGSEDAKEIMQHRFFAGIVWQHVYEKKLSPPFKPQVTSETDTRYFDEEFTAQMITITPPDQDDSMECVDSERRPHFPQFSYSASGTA", "test": "Kinase-Glo Luminescent Kinase Assay", "protocol": "as §1, §2"}, "[3]": {"target": "T2, CK1a 1 (Homo sapiens, UniProt P48729)", "T2 construct": "purchased Promega", "test": "Kinase-Glo Luminescent Kinase Assay", "protocol": "as §1, §2"}, "[4]": {"target": "T3, CHK1 (Homo sapiens, UniProt O14757)", "T3 construct": "purchased Promega", "T3 sequence (O14757 1-476)": "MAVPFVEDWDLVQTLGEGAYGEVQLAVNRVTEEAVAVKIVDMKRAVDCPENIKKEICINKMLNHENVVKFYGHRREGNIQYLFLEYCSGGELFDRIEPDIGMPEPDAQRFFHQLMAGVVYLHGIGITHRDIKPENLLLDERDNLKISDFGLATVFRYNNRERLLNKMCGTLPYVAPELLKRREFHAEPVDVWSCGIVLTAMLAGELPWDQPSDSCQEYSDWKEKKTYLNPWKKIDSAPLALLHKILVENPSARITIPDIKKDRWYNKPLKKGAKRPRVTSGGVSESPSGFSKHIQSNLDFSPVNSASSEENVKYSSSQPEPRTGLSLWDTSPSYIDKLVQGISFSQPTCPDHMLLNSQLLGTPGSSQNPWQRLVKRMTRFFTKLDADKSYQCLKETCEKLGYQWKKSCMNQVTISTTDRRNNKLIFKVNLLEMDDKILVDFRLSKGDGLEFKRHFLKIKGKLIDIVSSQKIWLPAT", "test": "Kinase-Glo Luminescent Kinase Assay", "protocol": "as §1, §2"}, "[5]": {"target": "T4, GSK3B (Homo sapiens, UniProt P49841)", "T4 construct": "purchased Promega", "T4 sequence (P49841 whole entry)": "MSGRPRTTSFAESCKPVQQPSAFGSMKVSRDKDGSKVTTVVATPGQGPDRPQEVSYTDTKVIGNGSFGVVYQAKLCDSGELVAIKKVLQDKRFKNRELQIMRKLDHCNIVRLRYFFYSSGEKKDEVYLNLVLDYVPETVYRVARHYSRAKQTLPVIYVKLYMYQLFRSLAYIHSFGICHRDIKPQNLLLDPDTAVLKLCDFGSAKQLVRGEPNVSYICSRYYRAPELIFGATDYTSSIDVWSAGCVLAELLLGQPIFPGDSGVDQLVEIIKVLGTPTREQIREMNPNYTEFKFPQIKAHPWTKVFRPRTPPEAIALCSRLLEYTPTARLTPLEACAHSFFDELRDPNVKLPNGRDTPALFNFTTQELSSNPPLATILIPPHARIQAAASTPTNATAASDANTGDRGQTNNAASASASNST", "test": "Kinase-Glo Luminescent Kinase Assay", "protocol": "as §1, §2"}, "[6]": {"target": "T5, FGFR1 (Homo sapiens, UniProt P11362)", "T5 construct": "purchased Promega", "T5 sequence (P11362 22-822)": "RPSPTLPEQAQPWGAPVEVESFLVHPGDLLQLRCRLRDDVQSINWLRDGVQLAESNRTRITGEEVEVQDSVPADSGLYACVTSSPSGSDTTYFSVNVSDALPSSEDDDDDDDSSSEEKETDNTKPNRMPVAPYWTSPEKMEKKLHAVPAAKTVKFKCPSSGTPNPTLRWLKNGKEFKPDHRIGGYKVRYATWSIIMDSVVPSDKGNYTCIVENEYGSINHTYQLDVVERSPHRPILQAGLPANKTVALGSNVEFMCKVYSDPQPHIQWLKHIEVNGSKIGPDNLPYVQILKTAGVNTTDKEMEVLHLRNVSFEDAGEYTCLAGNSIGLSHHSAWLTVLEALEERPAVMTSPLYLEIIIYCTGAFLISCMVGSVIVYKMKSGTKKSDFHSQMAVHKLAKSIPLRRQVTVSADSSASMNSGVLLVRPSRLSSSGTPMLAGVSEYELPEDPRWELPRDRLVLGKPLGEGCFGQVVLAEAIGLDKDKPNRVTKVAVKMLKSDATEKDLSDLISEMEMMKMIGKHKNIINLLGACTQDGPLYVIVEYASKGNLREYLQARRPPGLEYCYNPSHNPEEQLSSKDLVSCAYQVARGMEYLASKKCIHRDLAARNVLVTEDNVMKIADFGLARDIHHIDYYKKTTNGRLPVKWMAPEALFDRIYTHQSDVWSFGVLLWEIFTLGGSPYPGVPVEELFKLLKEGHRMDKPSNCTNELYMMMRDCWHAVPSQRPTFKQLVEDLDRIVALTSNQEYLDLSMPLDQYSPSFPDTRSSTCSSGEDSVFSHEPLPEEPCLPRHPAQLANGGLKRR", "test": "Kinase-Glo Luminescent Kinase Assay", "protocol": "as §1, §2"}, "[7]": {"target": "T6, TAK1-TAB1 (Homo sapiens, UniProt O43318)", "T6 construct": "purchased Promega", "T6 sequence (O43318 with tags, fused parts or gaps limits assumed)": "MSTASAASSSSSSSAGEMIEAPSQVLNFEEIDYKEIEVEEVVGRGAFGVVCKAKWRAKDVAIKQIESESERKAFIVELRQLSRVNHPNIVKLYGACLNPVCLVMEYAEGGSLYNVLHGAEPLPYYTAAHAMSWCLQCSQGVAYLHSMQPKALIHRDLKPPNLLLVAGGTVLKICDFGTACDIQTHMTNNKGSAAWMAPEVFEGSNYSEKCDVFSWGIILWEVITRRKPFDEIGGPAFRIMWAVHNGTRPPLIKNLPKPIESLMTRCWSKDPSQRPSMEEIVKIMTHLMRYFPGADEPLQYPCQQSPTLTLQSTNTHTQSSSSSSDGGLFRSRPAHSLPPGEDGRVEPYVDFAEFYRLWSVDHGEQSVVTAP", "test": "Kinase-Glo Luminescent Kinase Assay", "protocol": "as §1, §2"}, "[8]": {"target": "T7, CK2a 1 (Homo sapiens, UniProt P68400)", "T7 construct": "purchased Promega", "T7 sequence (P68400 whole entry)": "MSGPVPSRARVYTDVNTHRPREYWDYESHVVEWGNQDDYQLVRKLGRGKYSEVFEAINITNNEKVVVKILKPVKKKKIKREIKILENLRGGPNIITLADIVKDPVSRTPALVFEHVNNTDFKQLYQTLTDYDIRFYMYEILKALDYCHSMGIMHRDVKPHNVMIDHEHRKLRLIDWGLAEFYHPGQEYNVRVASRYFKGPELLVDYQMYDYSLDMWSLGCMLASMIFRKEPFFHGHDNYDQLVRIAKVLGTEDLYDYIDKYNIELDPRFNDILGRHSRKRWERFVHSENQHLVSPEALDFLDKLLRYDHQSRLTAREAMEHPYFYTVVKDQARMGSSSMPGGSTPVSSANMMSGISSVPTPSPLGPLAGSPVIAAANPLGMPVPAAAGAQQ", "test": "Kinase-Glo Luminescent Kinase Assay", "protocol": "as §1, §2"}, "[9]": {"target": "T8, CAMK4 (Homo sapiens, UniProt Q16566)", "T8 construct": "purchased Promega", "T8 sequence (Q16566 whole entry)": "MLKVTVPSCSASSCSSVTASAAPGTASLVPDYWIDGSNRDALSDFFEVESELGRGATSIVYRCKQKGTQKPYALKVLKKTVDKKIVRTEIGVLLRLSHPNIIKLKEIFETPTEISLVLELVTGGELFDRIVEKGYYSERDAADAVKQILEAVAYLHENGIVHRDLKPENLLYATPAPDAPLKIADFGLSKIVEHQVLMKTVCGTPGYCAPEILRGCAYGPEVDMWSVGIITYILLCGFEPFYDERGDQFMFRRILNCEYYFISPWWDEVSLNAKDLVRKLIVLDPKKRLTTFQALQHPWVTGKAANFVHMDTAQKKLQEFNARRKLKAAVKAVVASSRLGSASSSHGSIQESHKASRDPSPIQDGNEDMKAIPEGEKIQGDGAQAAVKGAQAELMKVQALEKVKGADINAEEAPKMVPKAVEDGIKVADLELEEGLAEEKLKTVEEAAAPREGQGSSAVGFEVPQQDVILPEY", "test": "Kinase-Glo Luminescent Kinase Assay", "protocol": "as §1, §2"}, "[10]": {"target": "T9, MINK1 (Homo sapiens, UniProt Q8N4C8)", "T9 construct": "purchased Promega", "T9 sequence (Q8N4C8 whole entry)": "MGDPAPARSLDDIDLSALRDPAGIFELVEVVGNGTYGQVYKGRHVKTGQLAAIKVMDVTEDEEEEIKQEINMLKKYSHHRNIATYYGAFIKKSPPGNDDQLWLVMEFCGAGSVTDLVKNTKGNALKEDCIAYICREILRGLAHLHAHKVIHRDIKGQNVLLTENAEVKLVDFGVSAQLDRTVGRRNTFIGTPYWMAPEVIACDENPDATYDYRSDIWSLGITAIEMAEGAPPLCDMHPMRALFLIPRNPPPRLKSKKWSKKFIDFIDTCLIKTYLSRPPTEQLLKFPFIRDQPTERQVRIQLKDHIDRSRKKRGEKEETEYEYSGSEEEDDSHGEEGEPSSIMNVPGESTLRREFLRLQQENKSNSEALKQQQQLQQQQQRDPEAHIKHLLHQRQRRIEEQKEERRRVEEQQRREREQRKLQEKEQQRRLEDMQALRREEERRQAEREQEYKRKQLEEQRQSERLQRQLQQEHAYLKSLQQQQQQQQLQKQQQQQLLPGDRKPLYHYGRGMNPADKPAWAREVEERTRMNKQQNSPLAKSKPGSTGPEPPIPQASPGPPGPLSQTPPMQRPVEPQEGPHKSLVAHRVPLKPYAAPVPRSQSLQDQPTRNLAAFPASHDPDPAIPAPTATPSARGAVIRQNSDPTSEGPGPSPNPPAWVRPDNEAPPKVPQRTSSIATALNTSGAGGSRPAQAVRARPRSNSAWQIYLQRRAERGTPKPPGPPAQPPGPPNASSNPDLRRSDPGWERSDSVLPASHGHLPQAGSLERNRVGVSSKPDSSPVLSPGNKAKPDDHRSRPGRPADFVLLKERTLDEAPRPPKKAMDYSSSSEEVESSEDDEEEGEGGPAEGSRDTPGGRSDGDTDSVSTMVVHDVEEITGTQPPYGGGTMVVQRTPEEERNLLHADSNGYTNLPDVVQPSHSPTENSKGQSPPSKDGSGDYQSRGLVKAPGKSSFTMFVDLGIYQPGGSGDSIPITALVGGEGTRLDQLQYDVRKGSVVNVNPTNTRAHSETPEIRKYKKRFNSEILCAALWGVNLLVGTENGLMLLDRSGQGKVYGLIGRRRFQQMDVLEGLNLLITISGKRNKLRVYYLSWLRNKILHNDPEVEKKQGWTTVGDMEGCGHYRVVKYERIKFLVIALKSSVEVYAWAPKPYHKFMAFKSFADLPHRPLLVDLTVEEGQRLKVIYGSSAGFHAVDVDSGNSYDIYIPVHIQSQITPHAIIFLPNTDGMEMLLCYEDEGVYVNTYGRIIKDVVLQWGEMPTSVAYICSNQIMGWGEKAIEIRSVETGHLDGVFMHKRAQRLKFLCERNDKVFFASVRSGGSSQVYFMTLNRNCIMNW", "test": "Kinase-Glo Luminescent Kinase Assay", "protocol": "as §1, §2"}, "[11]": {"target": "T10, LCK (Homo sapiens, UniProt P06239)", "T10 construct": "purchased Promega", "T10 sequence (P06239 whole entry)": "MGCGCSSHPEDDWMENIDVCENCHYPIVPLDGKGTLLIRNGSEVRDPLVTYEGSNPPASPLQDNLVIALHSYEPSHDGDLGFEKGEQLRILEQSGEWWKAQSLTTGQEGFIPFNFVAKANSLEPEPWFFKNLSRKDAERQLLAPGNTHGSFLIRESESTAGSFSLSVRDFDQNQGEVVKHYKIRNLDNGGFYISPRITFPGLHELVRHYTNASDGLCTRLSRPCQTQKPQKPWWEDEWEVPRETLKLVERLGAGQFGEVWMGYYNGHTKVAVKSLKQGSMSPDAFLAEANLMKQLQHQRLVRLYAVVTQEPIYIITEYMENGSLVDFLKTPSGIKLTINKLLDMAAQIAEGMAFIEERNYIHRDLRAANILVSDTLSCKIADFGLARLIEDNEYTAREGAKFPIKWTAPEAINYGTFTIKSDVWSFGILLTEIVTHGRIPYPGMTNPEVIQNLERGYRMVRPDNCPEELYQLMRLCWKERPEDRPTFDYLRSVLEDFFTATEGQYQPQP", "test": "Kinase-Glo Luminescent Kinase Assay", "protocol": "as §1, §2"}, "[12]": {"target": "T11, CK1y1 (Homo sapiens, UniProt Q9HCP0)", "T11 construct": "purchased Promega", "test": "Kinase-Glo Luminescent Kinase Assay", "protocol": "as §1, §2"}, "[13]": {"target": "T12, MAPKAPK2 (Homo sapiens, UniProt P49137)", "T12 construct": "purchased Promega", "T12 sequence (P49137 whole entry)": "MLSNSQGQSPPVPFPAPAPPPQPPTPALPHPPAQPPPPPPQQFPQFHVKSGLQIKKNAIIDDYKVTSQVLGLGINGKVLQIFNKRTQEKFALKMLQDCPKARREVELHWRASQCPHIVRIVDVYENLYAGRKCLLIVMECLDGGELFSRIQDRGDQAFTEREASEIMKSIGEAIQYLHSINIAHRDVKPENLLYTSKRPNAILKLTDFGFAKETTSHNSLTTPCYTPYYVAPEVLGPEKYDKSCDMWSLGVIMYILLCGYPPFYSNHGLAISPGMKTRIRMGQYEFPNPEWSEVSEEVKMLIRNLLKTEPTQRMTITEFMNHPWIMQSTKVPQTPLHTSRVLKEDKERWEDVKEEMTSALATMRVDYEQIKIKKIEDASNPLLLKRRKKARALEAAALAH", "test": "Kinase-Glo Luminescent Kinase Assay", "protocol": "as §1, §2"}}}
{"smiles": "CC(=NNc1nc2cc(F)c(F)cc2n1C)c1ccc(F)cn1", "note": "[SI-12]", "values": [{"measurement": "effects on kinase activity, panel overall", "setting": "[1]", "result": "minimal effects on kinase activity"}, {"measurement": "AKT1 kinase inhibition", "setting": "[2]; 5 nM", "result": "− (less than 20% inhibition)"}, {"measurement": "AKT1 kinase inhibition", "setting": "[2]; 50 nM", "result": "− (less than 20% inhibition)"}, {"measurement": "AKT1 kinase inhibition", "setting": "[2]; 1000 nM", "result": "− (less than 20% inhibition)"}, {"measurement": "CK1a 1 kinase inhibition", "setting": "[3]; 5 nM", "result": "− (less than 20% inhibition)"}, {"measurement": "CK1a 1 kinase inhibition", "setting": "[3]; 50 nM", "result": "− (less than 20% inhibition)"}, {"measurement": "CK1a 1 kinase inhibition", "setting": "[3]; 1000 nM", "result": "− (less than 20% inhibition)"}, {"measurement": "CHK1 kinase inhibition", "setting": "[4]; 5 nM", "result": "− (less than 20% inhibition)"}, {"measurement": "CHK1 kinase inhibition", "setting": "[4]; 50 nM", "result": "− (less than 20% inhibition)"}, {"measurement": "CHK1 kinase inhibition", "setting": "[4]; 1000 nM", "result": "− (less than 20% inhibition)"}, {"measurement": "GSK3B kinase inhibition", "setting": "[5]; 5 nM", "result": "− (less than 20% inhibition)"}, {"measurement": "GSK3B kinase inhibition", "setting": "[5]; 50 nM", "result": "− (less than 20% inhibition)"}, {"measurement": "GSK3B kinase inhibition", "setting": "[5]; 1000 nM", "result": "− (less than 20% inhibition)"}, {"measurement": "FGFR1 kinase inhibition", "setting": "[6]; 5 nM", "result": "+ (from 20% to 40% inhibition)"}, {"measurement": "FGFR1 kinase inhibition", "setting": "[6]; 50 nM", "result": "− (less than 20% inhibition)"}, {"measurement": "FGFR1 kinase inhibition", "setting": "[6]; 1000 nM", "result": "− (less than 20% inhibition)"}, {"measurement": "TAK1-TAB1 kinase inhibition", "setting": "[7]; 5 nM", "result": "− (less than 20% inhibition)"}, {"measurement": "TAK1-TAB1 kinase inhibition", "setting": "[7]; 50 nM", "result": "− (less than 20% inhibition)"}, {"measurement": "TAK1-TAB1 kinase inhibition", "setting": "[7]; 1000 nM", "result": "− (less than 20% inhibition)"}, {"measurement": "CK2a 1 kinase inhibition", "setting": "[8]; 5 nM", "result": "− (less than 20% inhibition)"}, {"measurement": "CK2a 1 kinase inhibition", "setting": "[8]; 50 nM", "result": "− (less than 20% inhibition)"}, {"measurement": "CK2a 1 kinase inhibition", "setting": "[8]; 1000 nM", "result": "− (less than 20% inhibition)"}, {"measurement": "CAMK4 kinase inhibition", "setting": "[9]; 5 nM", "result": "− (less than 20% inhibition)"}, {"measurement": "CAMK4 kinase inhibition", "setting": "[9]; 50 nM", "result": "− (less than 20% inhibition)"}, {"measurement": "CAMK4 kinase inhibition", "setting": "[9]; 1000 nM", "result": "− (less than 20% inhibition)"}, {"measurement": "MINK1 kinase inhibition", "setting": "[10]; 5 nM", "result": "− (less than 20% inhibition)"}, {"measurement": "MINK1 kinase inhibition", "setting": "[10]; 50 nM", "result": "− (less than 20% inhibition)"}, {"measurement": "MINK1 kinase inhibition", "setting": "[10]; 1000 nM", "result": "− (less than 20% inhibition)"}, {"measurement": "LCK kinase inhibition", "setting": "[11]; 5 nM", "result": "− (less than 20% inhibition)"}, {"measurement": "LCK kinase inhibition", "setting": "[11]; 50 nM", "result": "− (less than 20% inhibition)"}, {"measurement": "LCK kinase inhibition", "setting": "[11]; 1000 nM", "result": "− (less than 20% inhibition)"}, {"measurement": "CK1y1 kinase inhibition", "setting": "[12]; 5 nM", "result": "− (less than 20% inhibition)"}, {"measurement": "CK1y1 kinase inhibition", "setting": "[12]; 50 nM", "result": "− (less than 20% inhibition)"}, {"measurement": "CK1y1 kinase inhibition", "setting": "[12]; 1000 nM", "result": "− (less than 20% inhibition)"}, {"measurement": "MAPKAPK2 kinase inhibition", "setting": "[13]; 5 nM", "result": "− (less than 20% inhibition)"}, {"measurement": "MAPKAPK2 kinase inhibition", "setting": "[13]; 50 nM", "result": "− (less than 20% inhibition)"}, {"measurement": "MAPKAPK2 kinase inhibition", "setting": "[13]; 1000 nM", "result": "− (less than 20% inhibition)"}]}
